The values below come from PMC9225741, “Inhibition of Streptococcus mutans adhesion and biofilm formation with small-molecule inhibitors of sortase A from Juniperus chinensis” (Journal of Oral Microbiology, 2022).

≈ marks a conversion by molar mass, not a printed value. Entries after “also recorded” stand apart in the source; their conditions may differ. Like-named read-outs stand apart in the source and are kept apart here. Some results are limits rather than exact numbers.

Experiment [1] deals with T1, S. mutans SrtA (Streptococcus mutans, UniProt Q8CM62).
T1 construct: made in house; host or cells: Escherichia coli
Description: biochemical. Format: biochemical, Streptococcus mutans OMZ65. Here is the method: Recombinant SrtA protein was prepared following previously described procedures. S. mutans OMZ65 isolated from the human oral cavity was provided by Seoul National University School of Dentistry. The srtA genes derived from S. mutans OMZ65 were expressed in Escherichia coli and SrtA was purified through metal chelate affinity chromatography on Ni-nitriloacetic acid (NTA) resin. Each reaction was performed in a total volume of 100 μL, containing 50 mM Tris-HCl, 150 mM NaCl, and 5 mM CaCl2 at pH 7.5, along with 17 μg of purified SrtA and 250 ng of synthetic substrate (Dabcyl-LPETG-Edans). The sample compounds were added to each reaction mixture with the solvent DMSO (final concentration, 1%). After 1 h of incubation at 37°C, the reactions were quantified based on fluorometric intensity (350 nm excitation and 495 nm emission wavelengths) using a microplate reader (FLx800, BioTek Instruments, Winooski, VT). Triphasiol was used as a positive control for the SrtA inhibitor.
Recombinant SrtA protein derived from S. mutans OMZ65 was prepared from an extract of E. coli transformant using Ni-NTA affinity chromatography. SrtA enzyme activities were measured through a fluorophotometric method using synthetic peptide substrate containing the LPETG motif. […] As SrtA inhibitors may act as anti-infective agents and disrupt bacterial infectiousness without impacting bacterial viability, the MICs of the isolated compounds were evaluated to identify possible effects on S. mutans aggregation, adhesion, and biofilm formation on solid surfaces.

The test system of experiment [2] is S. mutans OMZ65. Description: Antibacterial activity assay (MIC, broth dilution). The note with it: S. mutans OMZ65, BHI broth, 16–20 h, 37°C, read-out: MIC (minimum inhibitory concentration). In kind it is cell-based, Streptococcus mutans. The protocol: Antibacterial activities of isolated compounds were determined according to a previously described method based on Clinical and Laboratory Standards Institute guidelines. Briefly, 5 mL of S. mutans OMZ65 was inoculated into brain heart infusion (BHI) broth, incubated aerobically for 16 h at 37°C, and the bacterial density was adjusted based on turbidity to match the 0.5 MacFarland standard at 625 nm. In each well of a 96-well plate, 20 μL of twofold diluted test compounds in 10% DMSO was added to 180 μL of cell culture in BHI broth and incubated for 16–20 h at 37°C. The final concentration of cells was approximately 5 × 10^5 colony-forming units (CFU)/mL. The minimal inhibitory concentration (MIC) values were identified as the lowest concentration that inhibited cell growth. Ampicillin was used as an antibacterial positive control.

Experiment [3] concerns SrtA derived from S. mutans UA159. The note with it: cited from earlier work.
Experiment [4] relates to SrtA S. mutans OMZ65. Details: method as in PMID 25746812. The note with it: read-out: IC50, SrtA inhibitors against S. mutans OMZ65; cited from earlier work.
Experiment [5] has as its system S. aureus ATCC6537p-derived SrtA. Details: method as in PMID 16010573. The note with it: cited from earlier work.
Experiment [6] relates to S. mutans. Description: Biofilm formation assay (polystyrene plate and resin teeth, safranin staining). In kind it is cell-based, Streptococcus mutans. The following applies: 24 h. Here is the method: The effect of SrtA inhibition on bacterial biofilm formation was investigated using the polystyrene plate and resin teeth model according to a previously described method. Wild-type S. mutans and srtA mutants were inoculated aerobically into 5 mL of BHI broth at 37°C. Cultures in BHI broth containing 0.1% sucrose (final concentration 5 × 10^5 CFU/mL) were incubated with or without test compounds on 96-well polystyrene plates or with resin teeth (Endura, Shofu Inc., Kyoto, Japan) at 37°C for 24 h under aerobic condition. Biofilms formed on the plate and resin teeth were washed twice with distilled water and then stained with 0.1% safranin for 30 s. After three further washes, the safranin-bound biofilms on plates were dissolved with 30% acetic acid (v/v aqueous solution) and the intensity of absorbance at 530 nm wavelength, indicating safranin, was measured. Biofilms on resin teeth was also washed three times and photographed.
Bacterial adherence and aggregation are initial steps in the biofilm formation process. Through interruption of SrtA enzyme activity, biofilm formation by S. mutans could also be disrupted. To investigate the effect of compound 1 on biofilm formation of S. mutans, the biofilm biomasses of NG8 and srtA mutants formed over 24 h on 96-well plates and resin teeth were assessed through staining with 0.1% safranin.
Figure 5. Inhibition of Streptococcus mutans biofilm formation by compound 1. Biofilm formation assays were performed using a polystyrene 96-well plate (A) and artificial resin teeth (B) at 37°C for 24 h under aerobic condition. […] 0.1% NaF was used as a positive control. Data are presented as the mean ± SD of three independent experiments (* p < 0.05, ** p < 0.01, and *** p < 0.001 based on Student’s t-test).

Experiment [7] has as its system SrtA (from strain ATCC25175). Also noted: method as in PMID 24154653. The following applies: cited from earlier work.
In experiment [8] the test system is SrtA. The following applies: read-out: IC50, SrtA activity; cited from earlier work.
Experiment [9] concerns S. mutans NG8. Description: Saliva-induced aggregation assay. In kind it is cell-based, Streptococcus mutans. Here is the method:
The effect of SrtA inhibitor on bacterial cell aggregation induced by human saliva was conducted according to a previously documented procedure. S. mutans NG8 (wild-type), srtA-deletion mutant (ΔsrtA), and srtA-complemented mutant (ΔsrtA+srtA) were used in this study. These strains were kindly provided by Prof. S. F. Lee (Dalhousie University, Nova Scotia, Canada) and inoculated into Todd Hewitt broth and incubated for 16 h at 37°C, washed twice with KPBS (137 mM NaCl, 2.7 mM KCl, 6.5 mM Na2HPO4, 1.5 mM KH2PO4, pH 7.2), and resuspended in KPBS to an approximate optical density of 1.0 at 700 nm. Assay mixtures consisted of 400 μL of cells, 100 μL of fresh clarified saliva, and diluted test compounds. Saliva was provided from one volunteer (a unmarried person) who had no dental health issues. The collected non-stimulated saliva was clarified by centrifugation (7,000 × g, 10 min, 4°C) and sterilized by membrane filtration (0.2 μm pore size). The mixtures were gently mixed through inversion and incubated aerobically at 37°C for 2 h. Turbidity at 700 nm was recorded every 20 min.
Using a combined bioactivity test, we subsequently examined the inhibitory effects of compound 1 on saliva-induced aggregation of S. mutans (Figure 3). […] Aggregation levels were measured based on the decrease of turbidity at 700 nm. […]

In experiment [10] the test system is S. mutans NG8. Description: Adherence assay on saliva-coated hydroxyapatite beads. The following applies: 90 min. In kind it is cell-based, Streptococcus mutans.
Description: The effect of SrtA inhibition on bacterial adherence was evaluated using saliva-coated hydroxyapatite beads (s-HAs) [11, 25]. A total of 30 μg of s-HAs (diameter, 80 µm; Bio-Rad, Hercules, CA) were coated with fresh saliva prepared as mentioned above for 1 h at room temperature and rinsed twice with 0.01 M potassium phosphate buffer (KPB; pH 7.0). S. mutans NG8 (wild type), srtA-deletion mutant (ΔsrtA), and srtA-complemented mutant (ΔsrtA + srtA) [11] were inoculated into 5 mL of BHI broth, incubated aerobically for 16 h at 37°C, and diluted to about 10^8 CFU/mL. […] After three rounds of washing with KPB, attachment between s-HAs and S. mutans cells was disrupted through sonication (50 W, 30s) in KPB. Dispersed cells were spread on Mitis-Salivarius agar (Difco, Detroit, MI) plates containing 3.2 mg/mL bacitracin. The number of colonies formed was determined after incubation for 48 h at 37°C.
In the present study, the role of SrtA inhibitors in modulating cell-surface-related properties of S. mutans was investigated in terms of adherence.
Attachment of S. mutans NG8, srtA-deletion mutant (ΔsrtA), and srtA-complemented mutant (ΔsrtA+srtA) was induced for 90 min at 37°C under aerobic condition, followed by dispersal via sonication (50 W, 30s) after three washes, and then colony-forming unit counting on Mitis-Salivarius agar (3.2 mg/mL bacitracin) after incubation for 48 h at 37°C. […]
Where [11] appears, read: SrtA IC50, recombinant SrtA from S. mutans OMZ65, 1 h, 37°C.

T1 sequence (Q8CM62 entry or part of it): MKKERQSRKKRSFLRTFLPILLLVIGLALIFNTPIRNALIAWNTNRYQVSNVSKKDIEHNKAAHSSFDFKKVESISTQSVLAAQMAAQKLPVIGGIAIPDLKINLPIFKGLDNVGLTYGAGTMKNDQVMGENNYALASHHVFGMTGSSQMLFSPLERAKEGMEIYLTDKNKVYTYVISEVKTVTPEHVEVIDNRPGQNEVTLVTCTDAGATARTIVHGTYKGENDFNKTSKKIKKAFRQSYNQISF

As for `C/C(=C\Cc1ccc(=O)c(O)cc1C(C)C)CO` [Compound 6, juniperone A], the IC50 in [1] (setting [11]) came to 62.5 µM. Moreover, in experiment [2] (Streptococcus mutans), the MIC came out at 257 µM (≈ 63.8 µg/mL).

Consider `COc1cc(/C=C/C(=O)CC(=O)/C=C/c2ccc(O)c(OC)c2)ccc1O` [curcumin], for which, in [3], the IC50 was 10.2 µM.

For the compound (−)-rosmarinic acid, the IC50 in experiment [4] is 20.1 µM.

For `CC(C)c1cc(=O)c(O)ccc1O` [Compound 5, 5-hydroxyhinokitiol], the IC50 in experiment [1] (setting [11]) stood at 51.7 µM. In experiment [2] (Streptococcus mutans), the MIC is over 300 µM.

Turning to `CC(C)C(=O)Cc1c(OCC(O)C(C)(C)O)ccc2ccc(=O)oc12` (stereo not drawn) [Triphasiol, reference compound], the IC50 in experiment [5] is 34.5 µM; in experiment [1] (recombinant SrtA from S. mutans OMZ65, 1 h, 37°C, read-out: SrtA IC50), 25.3 µM. Moreover, the pIC50 in experiment [1] (pIC50 = −log10(IC50), S. mutans SrtA) came to 4.60.

`CC1(C)S[C@@H]2[C@H](NC(=O)[C@H](N)c3ccccc3)C(=O)N2[C@H]1C(=O)O` [Ampicillin, reference compound]: the MIC in experiment [2] (Streptococcus mutans) is 0.4 µM (≈ 0.14 µg/mL).

For the compound `[F-].[Na+]` [NaF, reference compound], in experiment [6] (0.1%), the “effect on S. mutans biofilm formation (positive control)” value is reported as “potent inhibitory effects”.

Take `COc1cc(C[C@H]2COC(=O)[C@@H]2Cc2ccc(O)c(OC)c2)ccc1O` [Compound 2, (−)-matairesinol]: the IC50 in [1] (setting [11]) is over 300 µM. Also, in [2] (Streptococcus mutans), the MIC is over 300 µM.

In the case of `COc1cc(O)cc(O)c1C(C)=O` [Compound 4, 4,6-dihydroxy-2-methoxyacetophenone], in experiment [1] (S. mutans SrtA), the “SrtA inhibitory activity (in words)” value is “weak inhibitory activities”. For the same compound, the IC50 is 151 µM in [1] (setting [11]) and 155 µM in experiment [1] (pIC50, pIC50 = −log10(IC50), S. mutans SrtA). The MIC in experiment [2] (Streptococcus mutans) was over 300 µM.

Take `C[C@@H]1O[C@@H](O[C@H]2C(=O)c3c(O)cc(O)cc3O[C@@H]2c2ccc(O)c(O)c2)[C@H](O)[C@H](O)[C@H]1O` [Astillbin]: in experiment [7], the “IC50, SrtA (from strain ATCC25175)” value is 7.5 µg/mL (≈ 16.7 µM). Moreover, the IC50 in experiment [7] (value in brackets) is 16.7 µM.

Take `O=c1c(O)c(-c2ccc(O)c(O)c2)oc2cc(O)cc(O)c12` [Compound 3, quercetin]: the “SrtA inhibitory activity (in words)” value in experiment [1] (S. mutans SrtA) was “weak inhibitory activities”. Also, in experiment [2] (Streptococcus mutans), the MIC is over 300 µM.

As to `O=c1c(O)c(-c2cc(O)c(O)c(O)c2)oc2cc(O)cc(O)c12` [myricetin], the concentration for half-maximal inhibition (IC50) in experiment [8] is 48.7 µM.

Take `COc1cc(C[C@H]2COC(=O)[C@@H]2Cc2cc(O)c(O)c(OC)c2)cc(O)c1O` [Compound 1, 3’,3”-dihydroxy-(−)-matairesinol]: in experiment [9] (4× the IC50, without sucrose), the saliva-induced cell aggregation entry is “significantly repressed”. In addition, the “saliva-induced aggregation of NG8 cells (turbidity at 700 nm)” value in experiment [9] (tested at 0×, 1×, 2× and 4× the SrtA IC50 (16.1, 32.2, 64.4 μM), 2 h, 37°C) is “markedly reduced the aggregation of NG8 cells in a dose-dependent manner; also recorded: markedly reduced the aggregation capacity of the bacterial cells in a dose-dependent manner”. For the same compound, the “biofilm formation on 96-well polystyrene plates” value in experiment [6] (4× the IC50 (64.4 μM), 0.1% sucrose) is on record as “significantly reduced”. Also, in experiment [6] (0.1% sucrose, safranin staining), the “concentrations disrupting biofilm formation on the surface of resin teeth” value is “higher than 32.2 μM”. Also, the IC50 in [1] (setting [11]) was found to be 16.1 µM. The “adherence of S. mutans to s-HAs vs control (NG8)” value in experiment [10] (1× IC50 (16.1 μM)) was “not significantly different”. Further, the “decrease of bacterial adhesion to s-HAs compared to the control group” value in [10] (4× the IC50 (64.4 μM)) is “about 60%”. In addition, the MIC in [2] and in [2] (Streptococcus mutans) was over 300 µM in each case.

Turning to `O=c1c(O)c(-c2ccc(O)cc2O)oc2cc(O)cc(O)c12` [morin], the IC50 in experiment [3] was 27.2 µM.

For the compound `O=C(O)/C=C/c1ccc(O)c(O)c1` [caffeic acid], the IC50 in experiment [4] is 20.2 µM.
